# Test results taken from patent US20240317727A1 (Duke University, priority 2018, published 2024).
# Assays:
# [1] = molecular target: T1, recombinant HSF1 DNA-binding domain (DBD) (Homo sapiens, UniProt Q00613); experiment: Differential Scanning Fluorimetry (DSF), HSF1 DBD melting temperature
# T1 sequence (Q00613 15-120): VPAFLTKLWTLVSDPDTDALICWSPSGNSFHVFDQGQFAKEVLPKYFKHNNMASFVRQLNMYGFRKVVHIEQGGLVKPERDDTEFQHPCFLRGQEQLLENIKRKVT
# [2] = test system: HSF1 regulated transcripts; experiment: HSF1 regulated transcripts in C4-2 cells; type: cell-based, human; conditions: FIG. 4C
# [3] = test system: C4-2 malignant prostate cancer cells vs BPH-1 non-tumorigenic prostate cells; experiment: AlamarBlue cell viability, C4-2 vs BPH-1; type: cell-based, human; conditions: 96 hours, AlamarBlue assay, FIG. 6A
# Description: The cells were treated for 96 hours with the indicated concentrations of the compounds of the disclosure and cell viability was measured with the AlamarBlue assay. FIG. 6B illustrates the results of Compound 0017 used in a 7-week Maximal Tolerated Dose (MTD) study conducted in mice (3 mice identified as 118, 119 and 120). […] After sacrificing the mice on the last day of the administration, mouse liver and heart tissue was isolated, messenger RNA extracted and the transcript abundance of the HSF1 target gene, Hsp70, was evaluated by qRT-PCR relative to the internal RNA control, GAPDH. The results of the vehicle-treated versus Compound 0017-treated experiments were compared.
# Based on the chemical structure of Compound 0017 and its activity, and of other HSF1-interacting chemicals identified in the screen, additional derivatives were designed, synthesized and evaluated for binding to HSF1 and preferential inhibition of metastatic prostate cancer cells (C4-2) versus benign prostate cells (BPH-1).
# HL-60(TB) = experiment: cells; type: cell-based; conditions: Leukemia, two days
# MOLT-4 = experiment: NCI60 cell growth and viability: MOLT-4; type: cell-based; conditions: MOLT-4, Leukemia, two days
# HOP-92 = experiment: NCI60 cell growth and viability: HOP-92; type: cell-based; conditions: HOP-92, Non-Small Cell Lung Cancer, two days
# NCI-H23 = type: cell-based; conditions: NCI-H23, Non-Small Cell Lung Cancer, two days
# HCT-116 = experiment: NCI60 cell growth and viability: HCT-116; type: cell-based; conditions: HCT-116, Colon Cancer, two days
# HT29 = experiment: NCI60 cell growth and viability: HT29; type: cell-based; conditions: HT29, Colon Cancer, two days
# SF-539 = experiment: NCI60 cell growth and viability: SF-539; type: cell-based; conditions: SF-539, CNS Cancer, two days
# SNB-19 = experiment: NCI60 cell growth and viability: SNB-19; type: cell-based; conditions: SNB-19, CNS Cancer, two days
# LOX IMVI = experiment: NCI60 cell growth and viability: LOX IMVI; type: cell-based; conditions: Melanoma, two days
# SK-MEL-5 = experiment: NCI60 cell growth and viability: SK-MEL-5; type: cell-based; conditions: SK-MEL-5, Melanoma, two days
# IGROV1 = experiment: NCI60 cell growth and viability: IGROV1; type: cell-based; conditions: IGROV1, Ovarian Cancer, two days
# OVCAR-5 = experiment: NCI60 cell growth and viability: OVCAR-5; type: cell-based; conditions: OVCAR-5, Ovarian Cancer, two days
# NCI/ADR-RES = experiment: NCI60 cell growth and viability: NCI/ADR-RES; type: cell-based; conditions: Ovarian Cancer, two days
# SK-OV-3 = experiment: NCI60 cell growth and viability: SK-OV-3; type: cell-based; conditions: SK-OV-3, Ovarian Cancer, two days
# ACHN = experiment: NCI60 cell growth and viability: ACHN; type: cell-based; conditions: Renal Cancer, two days
# UO-31 = experiment: NCI60 cell growth and viability: UO-31; type: cell-based; conditions: UO-31, Renal Cancer, two days
# DU-145 = experiment: NCI60 cell growth and viability: DU-145; type: cell-based; conditions: DU-145, Prostate Cancer, two days
# [4] = Homo sapiens, 48 h, read-out: log10 [GI50 (M)] (converted)
# [5] = Homo sapiens, 48 h, read-out: log10 [LC50 (M)] (converted)
smiles,measurement,setting,value
"O=C(Nc1ccc(F)cc1)Nc1ccc(Cl)c([N+](=O)[O-])c1 [Compound 0017, 1-(4-chloro-3-nitrophenyl)-3-(4-fluorophenyl)urea]",ΔTm at 25 µM,"[1]; Table 1, 5 μM HSF1 DBD, 25PM Compound, positive = stabilizes, negative = destabilizes HSF1",3 °C
same,binding to HSF1,[1]; thermal denaturation assay,binds HSF1
same,HSF1 negatively regulated transcripts,[2],de-repressed
same,expression of HSF1 positively regulated transcripts,[2],dose-dependently repressed
same,viability of C4-2 compared to BPH-1,[3],preferentially inhibit the viability
same,GI50,HL-60(TB); [4],2.51e-06 M
same,CC50,HL-60(TB); [5],≥ 0.0001 M
same,log10 [TGI (M)],HL-60(TB),−5.07 log10 M
same,GI50,MOLT-4; [4],3.16e-06 M
same,CC50,MOLT-4; [5],≥ 0.0001 M
same,log10 [TGI (M)],MOLT-4,−4.03 log10 M
same,log10 [TGI (M)],HOP-92,−5.21 log10 M
same,GI50,HOP-92; [4],2.04e-06 M
same,CC50,HOP-92; [5],2.69e-05 M
same,GI50,NCI-H23; [4],2.63e-06 M
same,CC50,NCI-H23; [5],4.57e-05 M
same,log10 [TGI (M)],NCI-H23,−4.97 log10 M
same,log10 [TGI (M)],HCT-116,−4.93 log10 M
same,GI50,HCT-116; [4],3.09e-06 M
same,CC50,HCT-116; [5],3.47e-05 M
same,log10 [TGI (M)],HT29,−4.91 log10 M
same,GI50,"HT29; Homo sapiens, HT-29, 48 h, read-out: log10 [GI50 (M)] (converted)",3.24e-06 M
same,CC50,"HT29; Homo sapiens, HT-29, 48 h, read-out: log10 [LC50 (M)] (converted)",5.37e-05 M
same,GI50,SF-539; [4],3.89e-06 M
same,CC50,SF-539; [5],4.07e-05 M
same,log10 [TGI (M)],SF-539,−4.84 log10 M
same,GI50,SNB-19; [4],3.55e-06 M
same,CC50,SNB-19; [5],4.68e-05 M
same,log10 [TGI (M)],SNB-19,−4.84 log10 M
same,GI50,LOX IMVI; [4],3.55e-06 M
same,CC50,LOX IMVI; [5],4.07e-05 M
same,log10 [TGI (M)],LOX IMVI,−4.91 log10 M
same,GI50,SK-MEL-5; [4],1.78e-06 M
same,CC50,SK-MEL-5; [5],5.89e-06 M
same,log10 [TGI (M)],SK-MEL-5,−5.49 log10 M
same,GI50,"IGROV1; Homo sapiens, IGROV-1, 48 h, read-out: log10 [GI50 (M)] (converted)",4.79e-06 M
same,CC50,"IGROV1; Homo sapiens, IGROV-1, 48 h, read-out: log10 [LC50 (M)] (converted)",7.41e-05 M
same,log10 [TGI (M)],IGROV1,−4.73 log10 M
same,GI50,OVCAR-5; [4],3.55e-06 M
same,CC50,OVCAR-5; [5],6.46e-05 M
same,log10 [TGI (M)],OVCAR-5,−4.83 log10 M
same,GI50,NCI/ADR-RES; [4],2.57e-06 M
same,CC50,NCI/ADR-RES; [5],≥ 0.0001 M
same,log10 [TGI (M)],NCI/ADR-RES,−4.99 log10 M
same,GI50,SK-OV-3; [4],2.63e-06 M
same,CC50,SK-OV-3; [5],4.27e-05 M
same,log10 [TGI (M)],SK-OV-3,−5.12 log10 M
same,GI50,ACHN; [4],2.95e-06 M
same,CC50,ACHN; [5],6.03e-05 M
same,log10 [TGI (M)],ACHN,−4.96 log10 M
same,GI50,UO-31; [4],2.69e-06 M
same,CC50,UO-31; [5],3.47e-05 M
same,log10 [TGI (M)],UO-31,−4.97 log10 M
same,log10 [TGI (M)],DU-145,−4.67 log10 M
same,GI50,DU-145; [4],4.47e-06 M
same,CC50,DU-145; [5],≥ 0.0001 M
